Laboratory results as given in PubChem BioAssay (NCI).
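Following 48 hours of exposure in 96-well plates, responses at five concentrations were used to interpolate endpoints linearly. GI50 marks 50% less growth. TGI denotes the concentration required for complete inhibition of growth.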

Legend:
Test in all cases: inhibition of tumour cell growth, NCI panel, 48 h
HT29 colon = tested on: HT29 colon
U251 CNS = tested on: U251 CNS
OVCAR-3 ovarian = tested on: OVCAR-3 ovarian
EKVX NSCLC = tested on: EKVX NSCLC
SK-MEL-2 melanoma = tested on: SK-MEL-2 melanoma
TK-10 renal = tested on: TK-10 renal
UACC-62 melanoma = tested on: UACC-62 melanoma
CAKI-1 renal = tested on: CAKI-1 renal
OVCAR-5 ovarian = tested on: OVCAR-5 ovarian
SK-MEL-28 melanoma = tested on: SK-MEL-28 melanoma
COLO 205 colon = tested on: COLO 205 colon
IGROV1 ovarian = tested on: IGROV1 ovarian
HL-60(TB) leukemia = tested on: HL-60(TB) leukemia

| Structure (SMILES) | TGI (HT29 colon) [µM] | TGI (U251 CNS) [µM] | TGI (OVCAR-3 ovarian) [µM] | TGI (EKVX NSCLC) [µM] | TGI (SK-MEL-2 melanoma) [µM] | TGI (TK-10 renal) [µM] | TGI (UACC-62 melanoma) [µM] | TGI (CAKI-1 renal) [µM] | TGI (OVCAR-5 ovarian) [µM] | TGI (SK-MEL-28 melanoma) [µM] | GI50 (HT29 colon) [µM] | GI50 (U251 CNS) [µM] | GI50 (SK-MEL-2 melanoma) [µM] | GI50 (TK-10 renal) [µM] | GI50 (UACC-62 melanoma) [µM] | GI50 (OVCAR-5 ovarian) [µM] | GI50 (SK-MEL-28 melanoma) [µM] | TGI (COLO 205 colon) [µM] | TGI (IGROV1 ovarian) [µM] | TGI (HL-60(TB) leukemia) [µM] |
| --- | --- | --- | --- | --- | --- | --- | --- | --- | --- | --- | --- | --- | --- | --- | --- | --- | --- | --- | --- | --- |
| CCN(CC)CC(C)(C)C(=O)/C=C/c1ccc(C)cc1 | 12.3 | 28.6 | 21.7 | 16.9 | 25.7 | 27.9 | 31.8 | 29.1 | 27.6 | 27.8 |  |  |  |  |  |  |  |  |  |  |
| Clc1ccc2c(NCCNc3nc(-c4ccccc4)cc(-c4ccccc4)n3)ccnc2c1 | 3.31 | 3.59 |  |  | 3.62 | 3.41 | 3.37 |  | 3.17 | 3.23 | 1.66 | 1.96 | 1.84 | 1.86 | 1.85 | 1.68 | 1.76 |  |  |  |
| COc1cccc(/C=N/n2c(-c3ccccc3)n[nH]c2=O)c1 | > 100 | > 100 | > 100 | > 100 | > 100 |  | > 100 | > 100 | > 100 | > 100 |  |  |  |  |  |  |  | > 100 |  |  |
| COC(CNC(=O)C(C)NC(=O)C(C)NC(=O)c1ccccc1)OC (stereo not drawn) | > 100 | > 100 |  | > 100 | > 100 | > 100 | > 100 | > 100 | > 100 |  |  |  |  |  |  |  |  | > 100 | > 100 |  |
| CNC(=O)N(CCC#N)CCN(CCN(C(=O)NC)c1ccccc1)C(=O)NC | > 100 | > 100 | > 100 | > 100 | > 100 | > 100 | > 100 | > 100 | > 100 | > 100 |  |  |  |  |  |  |  | > 100 | > 100 |  |
| CCNC1CC(C(C)(C)NCC)CC=C1C (stereo not drawn) | > 100 | > 100 | > 100 | > 100 |  | > 100 | > 100 |  | > 100 | > 100 |  |  |  |  |  |  |  | > 100 | > 100 | > 100 |
| C[n+]1c2ccccc2c(NC(CCC(N)=O)C(=O)O)c2ccccc21 (stereo not drawn) | > 100 | > 100 | > 100 | > 100 | > 100 | > 100 | > 100 |  | > 100 |  |  |  |  |  |  |  |  | > 100 | > 100 | > 100 |
| COC(=O)c1ccccc1CC1Cc2cc3c(cc2C1)CCC3 | > 100 | > 100 | > 100 | > 100 | 43.9 | > 100 |  | > 100 | > 100 | > 100 |  |  |  |  |  |  |  | 52.7 | > 100 | 23.4 |
| COc1cc2c[n+](C)c3c4ccccc4ccc3c2cc1OC | > 47.6 | 10.3 | 34.9 | > 48.2 | 34.2 | > 100 | 18 | > 100 | > 100 | 18.1 |  |  |  |  |  |  |  | 5.6 |  |  |
| OCCOCCO[P+]1(OCCOCCO)n2c3ccc2C(c2ccccc2)=C2C=CC(=N2)C(c2ccccc2)=c2ccc(n21)=C(c1ccccc1)C1=NC(=C3c2ccccc2)C=C1 | 0.358 | > 100 | 0.158 |  |  | 1.74 | 0.633 | 3.79 | 1.95 | 0.778 |  |  |  |  |  |  |  | 0.0998 |  | 0.18 |
| Nc1nc(=O)n(C2OC(CO)C(O)C2O)cc1F (stereo not drawn) | > 100 | > 100 | > 100 | > 40.9 | > 100 |  | 5.3 | > 100 | > 81.3 | > 100 |  |  |  |  |  |  |  | > 100 | > 100 |  |
| C=CCC1(O)c2cccc(O)c2C(=O)c2c(O)cccc21 | 67.9 | 69.1 | > 100 | 92.2 | 51.2 | > 100 |  | > 100 | > 100 | > 100 |  |  |  |  |  |  |  |  | > 100 | 47.5 |
| Nc1ncnc2c1ncn2CC(OCP(=O)(O)O)Oc1ccccc1 (stereo not drawn) |  | > 100 | > 100 | > 100 | > 100 | > 100 | > 100 | > 100 | > 100 | > 100 |  |  |  |  |  |  |  | > 100 |  |  |
| COc1ccc(C2=C(OC(C)=O)c3cccn3-c3ccccc3S2)cc1 | > 10 |  |  |  |  | > 10 | > 10 | > 10 |  | > 10 |  |  |  |  |  |  |  | 8.53 | > 10 | 4.57 |
| CC(=O)Oc1ccc(-c2cc3ccccc3oc2=O)cc1OC(C)=O | > 100 | > 100 |  | > 100 | > 100 | > 100 |  |  | > 100 | > 100 |  |  |  |  |  |  |  | > 100 |  | 7.48 |
| O=C1c2c(Br)sc(Br)c2[C@H]2NC(=S)O[C@@H]12 | 33.5 | 26.7 | 20.4 | 39.5 | 33.4 | 57.9 | 29.2 | 26.7 | 35.2 | 29.6 |  |  |  |  |  |  |  | 27.8 | 32 |  |
| CCC(C)(C)NC1=C(NC(C)=O)C(=O)c2ccccc2C1=O | > 75 | > 75 | > 75 | > 75 | 58.2 | > 75 | > 75 |  |  | > 75 |  |  |  |  |  |  |  | > 75 | > 75 | 43 |
| Cn1ncc2c(NCCc3ccccc3)nc(Cl)nc21 | 31 | > 100 | > 100 | 23.3 | 36.7 | 65 | 45.1 | 91.4 | 36.4 | 76.4 |  |  |  |  |  |  |  | 34.2 | > 100 |  |
| COc1cc(OC)c(/C=N/N=C(\N)NO)c(OC)c1 | > 100 | > 100 | > 100 | > 100 | > 100 | > 100 | > 100 | > 100 | > 100 | > 100 |  |  |  |  |  |  |  | > 100 | > 100 |  |
| N#Cc1c(N2CCOCC2)ncn(-c2ccccc2)c1=O |  | > 100 | > 100 | > 100 | > 100 |  | > 100 | > 100 | > 100 | > 100 |  |  |  |  |  |  |  | > 100 | > 100 | > 100 |
